ChEMBL document CHEMBL1201862, “PubChem BioAssay data set” (2004)
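Protocol summary: plate cells (96-well), add compound at 5 concentrations, incubate 48 h, interpolate endpoints linearly. GI50 = concentration required for 50% inhibition of growth.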 Calls of active or inactive are those of the source. Rule as the data show it: active = GI50 up to about 1.1 µM and inactive = higher.

Assays:
Assay in all cases: NCI tumour cell line growth inhibition, 48 h
SF-295 = system: SF-295
UACC-257 = system: UACC-257
NCI-H522 = system: NCI-H522
HCC 2998 = system: HCC 2998
SK-MEL-2 = system: SK-MEL-2
SF-539 = system: SF-539
HL-60 = system: HL-60
HOP-92 = system: HOP-92
SN12C = system: SN12C
TK-10 = system: TK-10
786-0 = system: 786-0
A549 = system: A549
CCRF-CEM = system: CCRF-CEM
MOLT-4 = system: MOLT-4
COLO 205 = system: COLO 205
OVCAR-5 = system: OVCAR-5

| SMILES | GI50 (SF-295) | GI50 (UACC-257) | GI50 (NCI-H522) | GI50 (HCC 2998) | GI50 (SK-MEL-2) | GI50 (SF-539) | GI50 (HL-60) | GI50 (HOP-92) | GI50 (SN12C) | GI50 (TK-10) | GI50 (786-0) | GI50 (A549) | GI50 (CCRF-CEM) | GI50 (MOLT-4) | GI50 (COLO 205) | GI50 (OVCAR-5) |
| --- | --- | --- | --- | --- | --- | --- | --- | --- | --- | --- | --- | --- | --- | --- | --- | --- |
| CC1(C)OC2OC(/C=C/[N+](=O)[O-])C3OC(C)(C)OC3C2O1 (stereo not drawn) | 19.5 µM (inactive) | 7.52 µM (inactive) | 1.77 µM (inactive) | 16.8 µM (inactive) | 18.2 µM (inactive) | 13.6 µM (inactive) | 2.94 µM (inactive) | 8.43 µM (inactive) | 15.6 µM (inactive) | 5.26 µM (inactive) | 13.8 µM (inactive) | 20.3 µM (inactive) | 2.94 µM (inactive) | 3.01 µM (inactive) | 4.6 µM (inactive) | 23.2 µM (inactive) |
| Cc1cccc(C2=NC(C)(C)C(C)(C)N=C2c2cccc(C)n2)n1 | > 100 µM (inactive) | 45.4 µM (inactive) | > 100 µM (inactive) | > 100 µM (inactive) | > 100 µM (inactive) | > 100 µM (inactive) | 53.6 µM (inactive) | > 100 µM (inactive) |  | > 100 µM (inactive) | > 100 µM (inactive) | > 100 µM (inactive) | 71 µM (inactive) |  | 67.5 µM (inactive) | > 100 µM (inactive) |
| COC1=C(C(=O)OC(C)(C)C)C23CCCCC2(C(C(=O)OC(C)(C)C)=C(OC)C3C(=O)OC(C)(C)C)C1C(=O)OC(C)(C)C (stereo not drawn) | 4.78 µM (inactive) | 6.1 µM (inactive) | 11.6 µM (inactive) | 53.6 µM (inactive) | 4.18 µM (inactive) | 48.3 µM (inactive) | 6.81 µM (inactive) | 7.05 µM (inactive) | 38.2 µM (inactive) | > 100 µM (inactive) | > 100 µM (inactive) | 23 µM (inactive) | 27.9 µM (inactive) | 6.46 µM (inactive) | 10.4 µM (inactive) | > 100 µM (inactive) |
| CCCCCCCCCCCCCP(=O)(O)O | > 100 µM (inactive) | > 100 µM (inactive) | > 100 µM (inactive) | > 100 µM (inactive) | > 100 µM (inactive) | > 100 µM (inactive) | > 100 µM (inactive) | > 100 µM (inactive) | > 100 µM (inactive) | > 100 µM (inactive) | > 100 µM (inactive) | > 100 µM (inactive) | > 100 µM (inactive) |  | > 100 µM (inactive) | > 100 µM (inactive) |
| CCN(CC)CCN(C)CC(C)(C)C(=O)/C=C/c1ccccc1 | 15 µM (inactive) | 11.7 µM (inactive) | 9.77 µM (inactive) | 14.5 µM (inactive) | 11.7 µM (inactive) | 5.01 µM (inactive) | 6.22 µM (inactive) | 3.99 µM (inactive) | 10 µM (inactive) | 22.2 µM (inactive) | 15.8 µM (inactive) | 16.4 µM (inactive) | 4.99 µM (inactive) | 5.16 µM (inactive) | 13.7 µM (inactive) | 14 µM (inactive) |
| N#CCCN(CCC#N)c1ccc(C(Sc2ccccc2)C(NC(=O)c2cc([N+](=O)[O-])ccc2Cl)C(=O)Sc2ccccc2)cc1 (stereo not drawn) | 3.37 µM (inactive) | 8.07 µM (inactive) | 2.36 µM (inactive) | 6.65 µM (inactive) | 2.3 µM (inactive) | 1.8 µM (inactive) | 1.4 µM (inactive) | 5.58 µM (inactive) | 1.88 µM (inactive) | 7.28 µM (inactive) | 1.89 µM (inactive) | 2.88 µM (inactive) | 0.172 µM (active) | 0.385 µM (active) | 2.34 µM (inactive) | 4.38 µM (inactive) |
| O=C1OCC2C1C1c3ccccc3C(O)c3ccccc3C21 (stereo not drawn) | > 100 µM (inactive) | > 100 µM (inactive) |  | > 100 µM (inactive) | > 100 µM (inactive) | > 100 µM (inactive) | > 100 µM (inactive) | > 100 µM (inactive) | > 100 µM (inactive) | > 100 µM (inactive) | > 100 µM (inactive) | > 100 µM (inactive) | > 100 µM (inactive) | > 100 µM (inactive) | > 100 µM (inactive) | > 100 µM (inactive) |
